Test results published in patent publication US20240114940A1, “SACCHARIDE COMPOSITIONS HAVING SUCROSE-LIKE CHARACTERISTICS AND RELATED METHODS” (priority 2021, published 2024).

Tests used:
Format in all cases: physicochemical
[1] = pH and absorbance at 420 nm of closed-system heated solutions
[2] = Furfural and 5-hydroxymethylfurfural in headspace of heated solutions; details: solutions in water
Method: The solutions were rapidly heated to set temperatures and held at temperature for 5 min. After 5 min, the samples were rapidly cooled. […] (FIG. 18). The data is also plotted in FIG. 18 until 180° C.

[3] = Breakdown products by GCMS after Maillard reaction in the presence of Tryptophan; details: with Tryptophan, pH 7, 160° C., 10 min
Method: (§1) Controls were prepared addition of 1 mL of pH 7 buffer to the amino acids. The samples were rapidly heated to 160° C. and held at this temperature for 10 min. Samples were rapidly cooled afterwards, and absorbance at 500 nm was measured for each reaction mixture. Volatiles were analysed using gas chromatography mass spectrometry (GCMS) analysis. An Agilent Technologies 5975B Inert XL MSD gas chromatography, single quadruple mass spectrometer was used for analysis of volatiles. Samples were added to separate GCMS headspace vials and weighed. 0.03 g of 0.01% 3-heptanone in water was added and the vial was sealed for GCMS solid phase micro extraction (SPME) analysis. Samples were analysed in a randomized order. Samples were incubated and agitated at 250 RPM, at 60° C. for 15 min prior to SPME analysis of volatiles. The SPME fibre (50/30 DVB/CAR/PDMS, 23 Ga) extracted for 10 min, then thermally desorbed at 250° C. for 5 min. A 30 m×0.25 mm×0.25 μm HP-5MS column was used (Phenomenex, UK). Oven temperature settings: 31° C.-5 min, 5° C./min to 150° C., 30° C./min to 240° C. Inlet settings: 250° C., pressure 10.4 psi, flow 11.2 mL/min, split ratio 7:1. MS operated in full scan mode from 40 to 400 m/z with a scan time of 0.2s. The peak area of the aroma compounds was compared to the peak of the internal standard 3-heptanone and corrected for the weight of the sample.
(§2) The concentration of the different classes of Maillard reaction breakdown products is presented in Tables 9B-E. The same data as Tables 9B-E is also presented in FIG. 27. Concentrations are in parts per billion of the difference non-enzymatic breakdown products for the different compositions at 160° C. analysed by GCMS.

[4] = Breakdown products by GCMS after Maillard reaction in the presence of Leucine; details: 160° C.
Method: as §1, §2

[5] = Heating in a closed system (sealed microwave reactor tubes, 2 min), saccharides by ion-exchange chromatography; details: acidic conditions (pH 3 buffer), 177° C.
[6] = Breakdown products by GCMS without an amino acid present; details: pH 7, 160° C., 10 min
Method: as §1, §2

[7] = Non-enzymatic breakdown products in confectionery mixtures (milk, butter, saccharides); details: final confectionery mixture
[8] = Breakdown products by GCMS after Maillard reaction in the presence of Histidine; details: 160° C.
Method: as §1, §2

[9] = Carbonyls/ketones, Maillard reaction in the presence of Leucine, GCMS
[10] = Furans, Maillard reaction in the presence of Leucine, GCMS
[11] = Pyrazines, Maillard reaction in the presence of Leucine, GCMS

With `OC[C@H]1O[C@@](CO)(O[C@H]2O[C@H](CO)[C@@H](O)[C@H](O)[C@H]2O)[C@@H](O)[C@@H]1O` [Sucrose] the “A420 after heating to 177° C.” value ([1]; samples labelled as pH 3) was 0.089, the A420 before heating ([1]; samples labelled as pH 3) was 0.082 and the “pH after heating to 177° C.” value ([1]; samples labelled as pH 3) was 3.08. The pH before heating ([1]; samples labelled as pH 3) was 3, the “A420 after heating to 110° C.” value ([1]; samples labelled as pH 7) was 0.086 and the A420 before heating ([1]; samples labelled as pH 7) was 0.115. The “pH after heating to 110° C.” value ([1]; samples labelled as pH 7) was 6.88, the “pH after heating to 177° C.” value ([1]; samples labelled as pH 7) was 6.84 and the pH before heating ([1]; samples labelled as pH 7) was 6.78. For the same compound, the A420 before heating ([1]; samples labelled as pH 9) was 0.087, the “pH after heating 177° C.” value ([1]; samples labelled as pH 9) was 8.14 and the pH before heating ([1]; samples labelled as pH 9) was 8.76. The “temperature at which HMF concentration increased” value [2] was 180 °C, the “Concentration of 2-Butanone” value [3] was 3.16 ppb and the “Concentration of 2-Propanone, 1-hydroxy-” value [3] was 20.48 ppb. The “Concentration of Diacetyl (2,3-Butanedione)” value [3] was 6.99 ppb, the “Concentration of Furan, 2-methyl-” value [3] was 0.25 ppb and the “Concentration of Furan, 2-pentyl-” value [3] was 0.03 ppb. For the same compound, the “Concentration of Furfural” value [3] was 0.03 ppb, the “Concentration of Indole” value [3] was 20.81 ppb and the “Concentration of Pyrazine, 2,5-diethyl-” value [3] was 5.74 ppb. For the same compound, the “Concentration of Pyrazine, 2,5-dimethyl-” value [3] was 778.85 ppb, the “Concentration of Pyrazine, 2-ethyl-5-methyl-” value [3] was 201.9 ppb and the “Concentration of Pyrazine, ethyl-” value [3] was 0.19 ppb. For the same compound, the “Concentration of Pyrazine, methyl-” value [3] was 0.56 ppb, the 2-Butanone concentration [4, 9] was 9.73 ppb and the “2-Propanone, 1-hydroxy- concentration” value [4, 9] was 45.73 ppb. For the same compound, the “Diacetyl (2,3-Butanedione) concentration” value [4, 9] was 41.79 ppb, the “Furan, 2-methyl- concentration” value [4, 10] was 0.42 ppb and the Furfural concentration [4, 10] was 0.16 ppb. The “Pyrazine, 2,5-diethyl- concentration” value [4, 11] was 24.28 ppb, the “Pyrazine, 2,5-dimethyl- concentration” value [4, 11] was 2111.75 ppb and the “Pyrazine, 2-ethyl-5-methyl- concentration” value [4, 11] was 554.43 ppb. For the same compound, the “Pyrazine, ethyl- concentration” value [4, 11] was 8.8 ppb, the “Pyrazine, methyl- concentration” value [4, 11] was 20.49 ppb and the “Isovaleraldehyde (Butanal, 3-methyl-) concentration” value ([4]; Strecker aldehydes, Maillard reaction in the presence of Leucine, GCMS) was 3412.25 ppb. The Isovaleraldehyde concentration ([4]; with leucine) was 3400 ppb, the sucrose degraded [5] was “around 85%” and the “Concentration of 2-Butanone” value [6] was 178.52 ppb. For the same compound, the “Concentration of 2-Propanone, 1-hydroxy-” value [6] was 96.48 ppb, the “Concentration of 5-methyl furfural” value [6] was 0 ppb and the “Concentration of Diacetyl (2,3-Butanedione)” value [6] was 245.45 ppb. For the same compound, the “Concentration of Furan, 2-methyl-” value [6] was 0 ppb, the “Concentration of Furfural” value [6] was 1.42 ppb and the “Concentration of 3-methyl-3-(2-oxopropylamino)butan-2-one” value [7] was 0.00 ppb. For the same compound, the “Concentration of Acetic acid” value [7] was 0.01 ppb, the “Concentration of Benzaldehyde” value [7] was 0.13 ppb and the “Concentration of Furfural” value [7] was 0.01 ppb. For the same compound, the “Concentration of Isovaleraldehyde” value [7] was 0.17 ppb, the 2-Butanone concentration ([8]; Carbonyls/ketones) was 1.44 ppb and the “2-Propanone, 1-hydroxy- concentration” value ([8]; Carbonyls/ketones) was 14.57 ppb. For the same compound, the “Diacetyl (2,3-Butanedione) concentration” value ([8]; Carbonyls/ketones) was 1.62 ppb, the “Furan, 2-methyl- concentration” value ([8]; Furans) was 0 ppb and the Furfural concentration ([8]; Furans) was 0.03 ppb. For the same compound, the “Pyrazine, 2,5-diethyl- concentration” value ([8]; Pyrazines) was 0.48 ppb, the “Pyrazine, 2,5-dimethyl- concentration” value ([8]; Pyrazines) was 175.23 ppb and the “Pyrazine, 2-ethyl-5-methyl- concentration” value ([8]; Pyrazines) was 34.95 ppb. The “Pyrazine, ethyl- concentration” value ([8]; Pyrazines) was 0.14 ppb and the “Pyrazine, methyl- concentration” value ([8]; Pyrazines) was 0 ppb.
